Among the data in patent US20100029710A1, “COMPOUNDS HAVING BOTH ANGIOTENSIN II RECEPTOR ANTAGONISM AND PPARy ACTIVATING ACTIVITIES” (Pfizer Products Inc., priority 2006, published 2010) are IC50, Emax and EC50 values, retold here.

Each structure is given as a SMILES string.

Experiment [1] addresses T1, Human recombinant AT1 receptor (Homo sapiens, UniProt P30556).
T1 construct: purchased
T1 sequence (P30556 1-359): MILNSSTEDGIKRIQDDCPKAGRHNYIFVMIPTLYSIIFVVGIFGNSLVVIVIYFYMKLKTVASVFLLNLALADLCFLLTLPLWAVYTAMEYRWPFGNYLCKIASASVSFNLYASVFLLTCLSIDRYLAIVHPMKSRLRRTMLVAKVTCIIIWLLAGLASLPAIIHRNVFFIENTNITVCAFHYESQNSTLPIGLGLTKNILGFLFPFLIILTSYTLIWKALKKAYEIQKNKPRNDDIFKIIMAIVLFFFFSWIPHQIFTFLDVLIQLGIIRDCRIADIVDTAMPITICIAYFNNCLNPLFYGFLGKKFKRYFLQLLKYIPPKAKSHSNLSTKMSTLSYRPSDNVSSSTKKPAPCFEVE
Briefly: AT1 receptor radioligand binding (flashplate). The note with it: 125I Sar1,Ile8-Angiotensin II radioligand. An outline of the steps:
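Human recombinant AT1 receptor was coated on flashplates and competed against 125I-Sar1,Ile8-angiotensin II at its Kd concentration for 2 h at room temperature. Compounds were tested from […], with nonspecific binding defined by 10 μM angiotensin II. Ki was derived via Cheng-Prusoff.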

Experiment [2] addresses T2, human PPARγ LBD bound to Gal4 DBD (Homo sapiens, UniProt P37231).
T2 construct: expressed in transfected cells; host or cells: HepG2
T2 sequence (P37231 238-503 limits assumed): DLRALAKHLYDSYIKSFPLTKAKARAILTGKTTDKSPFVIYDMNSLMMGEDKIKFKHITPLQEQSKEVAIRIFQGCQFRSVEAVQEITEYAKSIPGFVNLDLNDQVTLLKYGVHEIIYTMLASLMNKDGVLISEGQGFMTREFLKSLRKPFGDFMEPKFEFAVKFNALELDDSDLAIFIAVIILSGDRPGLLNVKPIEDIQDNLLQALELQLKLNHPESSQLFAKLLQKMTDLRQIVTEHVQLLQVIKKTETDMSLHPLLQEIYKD
Briefly: PPARγ transfection luciferase reporter assay in HepG2 cells. The format is cell-based. The note with it: for Emax: HepG2, 24 h, compared to full agonist response (standard TZD full agonist), read-out: PPARγ % activation; for EC50: HepG2, 24 hours exposure. An outline of the steps: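 HepG2 cells transiently co-transfected with Gal4 DBD–PPARγ LBD, luciferase reporter and β-galactosidase, then exposed 24 h to compound (0.1 nM–100 μM). Luciferase/β-gal ratio gives activation. EC50 is relative to each compound's own maximum; efficacy is % of a reference TZD full agonist.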

With `CCc1nc2c(C)cc(CC(O)CC(C)C)nc2n1[C@H]1CCc2cc(-c3ccccc3-c3nnn[nH]3)ccc21` (stereo partly drawn) [Example 18, 1-(3-((1S)-5-(2-(1H-tetrazol-5-yl)phenyl)-2,3-dihydro-1H-inden-1-yl)-2-ethyl-7-methyl-3H-imidazo[4,5-b]pyridin-5-yl)-4-methylpentan-2-ol], in experiment [1], the IC50 was found to be 5.4 nM. Further, in experiment [2], the Emax was determined as 29% and the EC50 is 85 nM.

Regarding `C=CCc1cc(C)c2nc(CC)n([C@H]3CCc4cc(-c5ccccc5-c5nnn[nH]5)ccc43)c2n1` [Example 9, 3-((1S)-5-(2-(1H-tetrazol-5-yl)phenyl)-2,3-dihydro-1H-inden-1-yl)-5-allyl-2-ethyl-7-methyl-3H-imidazo[4,5-b]pyridine], the IC50 in experiment [1] was 2.7 nM. For the same compound, in experiment [2], the Emax came out at 27% and the half-maximal effective concentration (EC50) was determined as 60 nM.

In the case of `CCc1nc2c(C)cc(CCC(O)(CC)CC)nc2n1[C@H]1CCc2cc(-c3ccccc3-c3nnn[nH]3)ccc21` [Example 56, 1-(3-((1S)-5-(2-(1H-tetrazol-5-yl)phenyl)-2,3-dihydro-1H-inden-1-yl)-2-ethyl-7-methyl-3H-imidazo[4,5-b]pyridin-5-yl)-3-ethylpentane-3-ol], the IC50 in experiment [1] is 2.5 nM. In experiment [2], the Emax was 31% and a half-maximal response (EC50) required 110 nM.

As for `CCc1nc2c(C)cc(CCc3ccccc3C)nc2n1[C@H]1CCc2cc(-c3ccccc3-c3nnn[nH]3)ccc21` [Example 28, ((1S)-5-(2-(1H-tetrazol-5-yl)phenyl)-2,3-dihydro-1H-inden-1-yl)-5-(2-methylphenethyl)-2-ethyl-7-methyl-3H-imidazo[4,5-b]pyridine], the IC50 in experiment [1] is 2.2 nM. For the same compound, in experiment [2], the Emax worked out at 15% and a half-maximal effect (EC50) was put at 330 nM.

Consider `CCc1nc2c(C)cc(CC[C@H](C)OC)nc2n1[C@H]1CCc2cc(-c3ccccc3-c3nnn[nH]3)ccc21` [Example 38, 3-((1S)-5-(2-(1H-tetrazol-5-yl)phenyl)-2,3-dihydro-1H-inden-1-yl)-2-ethyl-5-((S)-3-methoxybutyl)-7-methyl-3H-imidazo[4,5-b]pyridine], for which, in experiment [1], the IC50 came to 2 nM. In addition, in experiment [2], the Emax was 21% and the EC50 was 215 nM.

For `CCc1nc2c(C)cc(CCc3ccccc3F)nc2n1[C@H]1CCc2cc(-c3ccccc3-c3nnn[nH]3)ccc21` [Example 26, 3-((1S)-5-(2-(1H-tetrazol-5-yl)phenyl)-2,3-dihydro-1H-inden-1-yl)-5-(2-fluorophenethyl)-2-ethyl-7-methyl-3H-imidazo[4,5-b]pyridine], the IC50 in experiment [1] was determined as 10 nM. Besides, in experiment [2], the Emax was 26% and a half-maximal effect (EC50) was put at 380 nM.

With `CCc1nc2c(C)cc([C@@H](OC)C(C)C)nc2n1[C@H]1CCc2cc(-c3ccccc3-c3nnn[nH]3)ccc21` [Example 12, 3-((1S)-5-(2-(1H-tetrazol-5-yl)phenyl)-2,3-dihydro-1H-inden-1-yl)-2-ethyl-5-((S)-1-methoxy-2-methylpropyl)-7-methyl-3H-imidazo[4,5-b]pyridine], the IC50 in experiment [1] turned out to be 0.7 nM. Also, in experiment [2], the Emax worked out at 17% and the EC50 amounted to 460 nM.

Regarding `CCc1nc2c(C)cc(CC(O)C(C)C)nc2n1[C@H]1CCc2cc(-c3ccccc3-c3nnn[nH]3)ccc21` (stereo partly drawn) [Example 21, 1-(3-((1S)-5-(2-(1H-tetrazol-5-yl)phenyl)-2,3-dihydro-1H-inden-1-yl)-2-ethyl-7-methyl-3H-imidazo[4,5-b]pyridin-5-yl)-3-methylbutane-2-ol], the concentration for half-maximal inhibition (IC50) in experiment [1] was 3.1 nM. In experiment [2], the Emax amounted to 23% and the EC50 is 100 nM.

For `CCc1nc2c(C)cc(CCC3CC3)nc2n1[C@H]1CCc2cc(-c3ccccc3-c3nnn[nH]3)ccc21` [Example 59, 3-((1S)-5-(2-(1H-tetrazol-5-yl)phenyl)-2,3-dihydro-1H-inden-1-yl)-5-(2-cyclopropylethyl)-2-ethyl-7-methyl-3H-imidazo[4,5-b]pyridine], in experiment [1], the IC50 worked out at 2.9 nM. Moreover, in experiment [2], the Emax came out at 30% and the midpoint of the response, the EC50, lay at 215 nM.

With `CCc1nc2c(C)cc(CCc3ccc(OC)cc3)nc2n1[C@H]1CCc2cc(-c3ccccc3-c3nnn[nH]3)ccc21` [Example 27, 3-((1S)-5-(2-(1H-tetrazol-5-yl)phenyl)-2,3-dihydro-1H-inden-1-yl)-5-(4-methoxyphenethyl)-2-ethyl-7-methyl-3H-imidazo[4,5-b]pyridine], in experiment [1], the IC50 amounted to 2 nM. Besides, in experiment [2], the Emax was 21% and the EC50 is 485 nM.

Take `CCc1nc2c(C)cc(CCc3cc(C)ccc3C)nc2n1[C@H]1CCc2cc(-c3ccccc3-c3nnn[nH]3)ccc21` [Example 31, 3-((1S)-5-(2-(1H-tetrazol-5-yl)phenyl)-2,3-dihydro-1H-inden-1-yl)-5-(2,5-dimethylphenethyl)-2-ethyl-7-methyl-3H-imidazo[4,5-b]pyridine]: in experiment [1], the IC50 was 6.9 nM. Further, in experiment [2], the Emax came out at 63% and the midpoint of the response, the EC50, lay at 45 nM.

Regarding `CCCc1nc2c(C)cc(CCC3(O)CCCC3)nc2n1[C@H]1CCc2cc(-c3ccccc3-c3nnn[nH]3)ccc21` [Example 43, 1-(2-(3-((1S)-5-(2-(1H-tetrazol-5-yl)phenyl)-2,3-dihydro-1H-inden-1-yl)-7-methyl-2-propyl-3H-imidazo[4,5-b]pyridin-5-yl)ethyl)cyclopentanol], the IC50 in experiment [1] was 1 nM. In addition, in experiment [2], the Emax is 20% and it took 840 nM to reach a half-maximal effect (EC50).

Regarding `CCc1nc2c(C)cc(CCC(C)(O)C(C)(C)C)nc2n1[C@H]1CCc2cc(-c3ccccc3-c3nnn[nH]3)ccc21` (stereo partly drawn) [Example 68, 1-(3-((1S)-5-(2-(1H-tetrazol-5-yl)phenyl)-2,3-dihydro-1H-inden-1-yl)-2-ethyl-7-methyl-3H-imidazo[4,5-b]pyridin-5-yl)-3,4,4-trimethylpentan-3-ol], the concentration for half-maximal inhibition (IC50) in experiment [1] turned out to be 6.5 nM. Besides, in experiment [2], the Emax worked out at 34% and the response was half-maximal at 45 nM (EC50).

Turning to `C=CCC(O)Cc1cc(C)c2nc(CC)n([C@H]3CCc4cc(-c5ccccc5-c5nnn[nH]5)ccc43)c2n1` (stereo partly drawn) [Example 20, 1-(3-((1S)-5-(2-(1H-tetrazol-5-yl)phenyl)-2,3-dihydro-1H-inden-1-yl)-2-ethyl-7-methyl-3H-imidazo[4,5-b]pyridin-5-yl)pent-4-en-2-ol], the IC50 in experiment [1] worked out at 5.7 nM. Further, in experiment [2], the Emax was found to be 31% and the EC50 was 70 nM.

Regarding `CCc1nc2c(C)cc(CC[C@@H](C)O)nc2n1[C@H]1CCc2cc(-c3ccccc3-c3nnn[nH]3)ccc21` (single isomer, unassigned) [Example 37], the IC50 in experiment [1] amounted to 0.5 nM. For the same compound, in experiment [2], the Emax worked out at 24% and the EC50 stood at 270 nM.

Regarding `CCc1nc2c(C)cc(CCc3ccccc3)nc2n1[C@H]1CCc2cc(-c3ccccc3-c3nnn[nH]3)ccc21` [Example 30, 3-((1S)-5-(2-(1H-tetrazol-5-yl)phenyl)-2,3-dihydro-1H-inden-1-yl)-2-ethyl-7-methyl-5-phenethyl-3H-imidazo[4,5-b]pyridine], in experiment [1], the IC50 was found to be 6 nM. Further, in experiment [2], the Emax came out at 28% and the EC50 amounted to 160 nM.

With `CCc1nc2c(C)cc(CCCOC)nc2n1[C@H]1CCc2cc(-c3ccccc3-c3nnn[nH]3)ccc21` [Example 48, 3-((1S)-5-(2-(1H-tetrazol-5-yl)phenyl)-2,3-dihydro-1H-inden-1-yl)-2-ethyl-5-(3-methoxypropyl)-7-methyl-3H-imidazo[4,5-b]pyridine], the IC50 in experiment [1] stood at 1.1 nM. For the same compound, in experiment [2], the Emax was 21% and the EC50 worked out at 190 nM.

On to `CCc1nc2c(C)cc(C(=O)CC(C)C)nc2n1[C@H]1CCc2cc(-c3ccccc3-c3nnn[nH]3)ccc21` [Example 60, 1-(3-((1S)-5-(2-(1H-tetrazol-5-yl)phenyl)-2,3-dihydro-1H-inden-1-yl)-2-ethyl-7-methyl-3H-imidazo[4,5-b]pyridin-5-yl)-3-methylbutan-1-one], for which, in experiment [1], the IC50 turned out to be 22 nM. Besides, in experiment [2], the Emax worked out at 21% and the EC50 is 525 nM.

With `CCc1nc2c(C)cc(CCCn3cccn3)nc2n1[C@H]1CCc2cc(-c3ccccc3-c3nnn[nH]3)ccc21` [Example 33, 5-(3-(1H-pyrazol-1-yl)propyl)-3-((1S)-5-(2-(1H-tetrazol-5-yl)phenyl)-2,3-dihydro-1H-inden-1-yl)-2-ethyl-7-methyl-3H-imidazo[4,5-b]pyridine], the IC50 in experiment [1] worked out at 2.1 nM. Moreover, in experiment [2], the Emax is 23% and the EC50 amounted to 400 nM.

In the case of `CCc1nc2c(C)cc(CCc3cccc(OC)c3)nc2n1[C@H]1CCc2cc(-c3ccccc3-c3nnn[nH]3)ccc21` [Example 29, 3-((1S)-5-(2-(1H-tetrazol-5-yl)phenyl)-2,3-dihydro-1H-inden-1-yl)-5-(3-methoxyphenethyl)-2-ethyl-7-methyl-3H-imidazo[4,5-b]pyridine], in experiment [1], the IC50 was found to be 2.9 nM. In addition, in experiment [2], the Emax worked out at 31% and the EC50 came to 195 nM.
